Measured values reported in patent US11001587B2, “Substituted indazoles as phosphatidylinositol kinase inhibitors” (CUROVIR AB, priority 2017, dated 2021).
Read-outs that look alike come from different tables or passages of the source.

Assays:
Enterovirus 6 = assay: In vitro CPE assay in mammalian cell culture, EV6; type: cell-based; conditions: viral cytopathic effect in mammalian cell culture, read-out: EV6 inhibition capacity (IC50)
Enterovirus 30 = assay: In vitro CPE assay in mammalian cell culture, EV30; type: cell-based; conditions: viral cytopathic effect in mammalian cell culture, read-out: EV30 inhibition capacity (IC50)
Enterovirus 68 = assay: In vitro CPE assay in mammalian cell culture, EV68; type: cell-based; conditions: Enterovirus D, viral cytopathic effect in mammalian cell culture, read-out: EV68 inhibition capacity (IC50)
Enterovirus 71 = assay: In vitro CPE assay in mammalian cell culture, EV71; type: cell-based; conditions: Enterovirus A, viral cytopathic effect in mammalian cell culture, read-out: EV71 inhibition capacity (IC50)
coxsackie B1 virus = assay: In vitro CPE assay in mammalian cell culture, B1; type: cell-based; conditions: viral cytopathic effect in mammalian cell culture, read-out: B1 inhibition capacity (IC50)
coxsackie B2 virus = assay: In vitro CPE assay in mammalian cell culture, B2; type: cell-based; conditions: viral cytopathic effect in mammalian cell culture, read-out: B2 inhibition capacity (IC50)
coxsackie B3 virus = assay: In vitro CPE assay in mammalian cell culture, B3; type: cell-based; conditions: Enterovirus B, viral cytopathic effect in mammalian cell culture, read-out: B3 inhibition capacity (IC50)
coxsackie B5 virus = assay: In vitro CPE assay in mammalian cell culture, B5; type: cell-based; conditions: viral cytopathic effect in mammalian cell culture, read-out: B5 inhibition capacity (IC50)
polio virus Sabin 1 = assay: organism not typed; type: cell-based; conditions: read-out: Polio 1 inhibition capacity (IC50)
in vivo [1] = assay: in vivo; design: species or system Sprague Dawley rats; conditions: male, Sprague Dawley, rat, po, 50 mg/kg
Procedure: Overnight fasted animals were administered with the test compounds in recommended vehicle 0.4% (v/v) Tween 80+2% (v/v) Glycerol and 15% w/v HPBCD by oral route with a dose of 50 mg/kg body weight at dose volume of 10 mL/kg bw. Under mild isoflurane anesthesia, blood samples were collected into pre-labeled tubes containing anticoagulant (K2EDTA—2 mg/mL blood) during the next 24 hours post dose. Collected blood samples were centrifuged at 4000 rpm, 4° C. for 10 minutes and plasma was separated and stored at −80° C. until analysis.

[2] = Metabolic stability in human liver microsomes; type: in vitro ADME; conditions: for Remaining after 1 h, HLM: human liver microsomes, 5 μM test item, 0.125 mg/mL microsomal protein; for half-life at 5 μM: human, microsomes
Procedure: (§1) Metabolic stability in human and rat liver microsomesMetabolic stability was studied using human (HLM) or rat (RLM) liver microsomes. The final composition of the assay included 5 μM of test item and reference item (Diclofenac or Imipramine) prepared from DMSO stock, so that the final concentration of DMSO was 0.1%, 0.125 mg/mL microsomal protein and cofactors (5.0 mM G-6-P, 0.06 U/mL G-6-PDH, 2.0 mM MgCl2, 1.0 mM NADP^+). Test and reference items were incubated with human or rat liver microsomes with or without cofactors. The reaction mixture (100 μL) was removed at specified time periods and the reaction was stopped by addition of stop solution. The samples were extracted in presence of internal standard and were analyzed using LC-MS/MS. The percent of the test/reference item remaining after a specified incubation period was calculated with respect to the peak area ratio at time 0 min.

[3] = Metabolic stability in rat liver microsomes; type: in vitro ADME; conditions: 5 μM test item, 0.125 mg/mL microsomal protein
Procedure: as §1

in vitro = in vitro ADME; conditions: plasma, pH 7.4
Procedure: Plasma protein binding study was performed by using a Rapid Equilibrium Dialysis (RED) device containing dialysis membrane with a molecular weight cut-off of 8,000 Daltons. Each dialysis insert contains two chambers. The red chamber was for the plasma while the white chamber was for the buffer. The human and rat plasma (pH adjusted to 7.40) samples of test items and reference items (Warfarin and Propranolol) were prepared at a required test concentration of 5 μM using 5 mM DMSO stocks (final DMSO concentration was 0.1%). 300 μL of plasma sample was added into the sample chamber. 500 μL of buffer was added into the buffer chamber. After sealing the RED device with an adhesive film, incubation was done at 37° C. with shaking at 300 rpm for 4 h. Following incubation, an aliquot of 50 μL was removed from each well (plasma and buffer side) and diluted with equal volume of opposite matrix to nullify the matrix effect. The specimens were subjected to sample extraction in presence of internal standard by liquid-liquid extraction/protein precipitation method. After extraction, the samples were transferred into labeled auto sampler vials and submitted to LC-MS/MS analysis.

coxsackie B4 virus = assay: In vitro CPE assay in mammalian cell culture, B4; type: cell-based; conditions: Enterovirus B, viral cytopathic effect in mammalian cell culture, read-out: B4 inhibition capacity (IC50)
PI4KIIIα = PI4KIIIα (Homo sapiens, UniProt P42356); assay: Phosphatidyl inositol kinase inhibition assay (ADP-Glo Kinase Assay); type: biochemical; conditions: * no inhibition at the highest tested concentration 1 μM
PI4KIIIα, sequence (P42356 whole entry): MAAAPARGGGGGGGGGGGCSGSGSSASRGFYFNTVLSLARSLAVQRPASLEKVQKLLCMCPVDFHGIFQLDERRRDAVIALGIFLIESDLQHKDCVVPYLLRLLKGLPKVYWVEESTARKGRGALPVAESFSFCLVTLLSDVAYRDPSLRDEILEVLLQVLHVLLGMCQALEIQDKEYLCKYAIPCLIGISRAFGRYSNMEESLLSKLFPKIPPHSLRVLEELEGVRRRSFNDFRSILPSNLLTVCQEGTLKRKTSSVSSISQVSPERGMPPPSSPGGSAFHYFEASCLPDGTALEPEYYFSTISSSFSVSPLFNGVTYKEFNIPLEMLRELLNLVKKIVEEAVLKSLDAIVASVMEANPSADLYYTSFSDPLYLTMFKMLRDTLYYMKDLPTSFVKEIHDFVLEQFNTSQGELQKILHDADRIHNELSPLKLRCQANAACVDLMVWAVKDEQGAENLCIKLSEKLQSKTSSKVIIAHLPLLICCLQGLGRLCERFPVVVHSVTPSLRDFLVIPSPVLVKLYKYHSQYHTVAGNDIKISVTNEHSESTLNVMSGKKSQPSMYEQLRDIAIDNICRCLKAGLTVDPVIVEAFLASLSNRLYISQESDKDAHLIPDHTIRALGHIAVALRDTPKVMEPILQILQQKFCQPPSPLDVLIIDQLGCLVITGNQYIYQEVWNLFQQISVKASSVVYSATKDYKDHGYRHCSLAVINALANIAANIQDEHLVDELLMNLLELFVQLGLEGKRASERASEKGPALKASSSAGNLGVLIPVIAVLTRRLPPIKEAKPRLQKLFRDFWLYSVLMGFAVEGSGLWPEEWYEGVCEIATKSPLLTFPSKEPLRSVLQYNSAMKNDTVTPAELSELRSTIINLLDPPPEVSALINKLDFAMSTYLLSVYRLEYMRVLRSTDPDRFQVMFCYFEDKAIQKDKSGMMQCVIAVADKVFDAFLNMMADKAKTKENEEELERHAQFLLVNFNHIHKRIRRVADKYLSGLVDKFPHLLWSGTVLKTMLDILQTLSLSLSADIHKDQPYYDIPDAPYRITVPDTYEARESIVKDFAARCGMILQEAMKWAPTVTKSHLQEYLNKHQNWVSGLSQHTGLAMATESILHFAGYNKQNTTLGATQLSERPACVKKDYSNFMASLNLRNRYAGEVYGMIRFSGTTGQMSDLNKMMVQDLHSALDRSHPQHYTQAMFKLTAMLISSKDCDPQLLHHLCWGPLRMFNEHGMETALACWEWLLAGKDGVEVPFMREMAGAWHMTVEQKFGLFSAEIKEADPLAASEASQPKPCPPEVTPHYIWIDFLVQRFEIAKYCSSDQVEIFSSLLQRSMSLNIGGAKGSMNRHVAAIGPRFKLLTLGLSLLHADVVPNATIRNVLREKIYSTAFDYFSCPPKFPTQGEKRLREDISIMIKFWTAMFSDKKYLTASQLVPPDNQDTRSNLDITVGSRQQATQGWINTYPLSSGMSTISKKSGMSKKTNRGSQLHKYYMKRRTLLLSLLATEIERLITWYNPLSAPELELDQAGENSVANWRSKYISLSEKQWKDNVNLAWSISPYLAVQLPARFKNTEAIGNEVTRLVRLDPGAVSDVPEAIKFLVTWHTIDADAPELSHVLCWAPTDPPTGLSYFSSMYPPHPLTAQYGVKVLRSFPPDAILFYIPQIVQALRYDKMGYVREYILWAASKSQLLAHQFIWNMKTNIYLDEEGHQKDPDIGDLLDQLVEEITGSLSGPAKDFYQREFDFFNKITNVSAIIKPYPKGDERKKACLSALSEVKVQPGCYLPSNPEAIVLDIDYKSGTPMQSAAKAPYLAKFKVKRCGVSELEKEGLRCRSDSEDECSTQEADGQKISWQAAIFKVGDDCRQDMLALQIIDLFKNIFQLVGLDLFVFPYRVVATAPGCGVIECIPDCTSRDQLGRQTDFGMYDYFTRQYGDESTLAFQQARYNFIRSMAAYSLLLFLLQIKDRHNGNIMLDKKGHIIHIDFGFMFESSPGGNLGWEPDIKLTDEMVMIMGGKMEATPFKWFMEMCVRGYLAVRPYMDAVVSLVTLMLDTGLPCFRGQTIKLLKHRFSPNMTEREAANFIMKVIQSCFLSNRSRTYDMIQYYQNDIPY
Procedure: (§2) Phosphatidyl inositol kinase inhibition assay Inhibition of PI4 kinases was studied using the ADP-Glo™ Kinase Assay which is a luminescent kinase assay that measures ADP formed from a kinase reaction, wherein ADP is converted into ATP, which is converted into light by Ultra-Glo™ Luciferase. The assay is performed in two steps; first, after the kinase reaction, an equal volume of ADP-Glo™ Reagent is added to terminate the kinase reaction and deplete the remaining ATP. In the second step, the Kinase Detection Reagent is added, which simultaneously converts ADP to ATP and allows the newly synthesized ATP to be measured using a coupled luciferase/luciferin reaction. The luminescent signal produced is proportional to the activity of the kinase. Inhibition of PI3 kinases was studied using the HTRF (homogeneous time-resolved fluorescence) assay, which is a universal method for identifying and characterizing the phosphotransferase activity induced by any ATP/ADP dependent target. The formation of ADP was detected by a specific monoclonal antibody labeled with Eu^3+ cryptate, and directly correlated with the amount of phosphorylated substrate.

PI4KIIIβ = PI4KIIIβ (Homo sapiens, UniProt Q9UBF8); assay: as above; type: biochemical
PI4KIIIβ, sequence (Q9UBF8 whole entry): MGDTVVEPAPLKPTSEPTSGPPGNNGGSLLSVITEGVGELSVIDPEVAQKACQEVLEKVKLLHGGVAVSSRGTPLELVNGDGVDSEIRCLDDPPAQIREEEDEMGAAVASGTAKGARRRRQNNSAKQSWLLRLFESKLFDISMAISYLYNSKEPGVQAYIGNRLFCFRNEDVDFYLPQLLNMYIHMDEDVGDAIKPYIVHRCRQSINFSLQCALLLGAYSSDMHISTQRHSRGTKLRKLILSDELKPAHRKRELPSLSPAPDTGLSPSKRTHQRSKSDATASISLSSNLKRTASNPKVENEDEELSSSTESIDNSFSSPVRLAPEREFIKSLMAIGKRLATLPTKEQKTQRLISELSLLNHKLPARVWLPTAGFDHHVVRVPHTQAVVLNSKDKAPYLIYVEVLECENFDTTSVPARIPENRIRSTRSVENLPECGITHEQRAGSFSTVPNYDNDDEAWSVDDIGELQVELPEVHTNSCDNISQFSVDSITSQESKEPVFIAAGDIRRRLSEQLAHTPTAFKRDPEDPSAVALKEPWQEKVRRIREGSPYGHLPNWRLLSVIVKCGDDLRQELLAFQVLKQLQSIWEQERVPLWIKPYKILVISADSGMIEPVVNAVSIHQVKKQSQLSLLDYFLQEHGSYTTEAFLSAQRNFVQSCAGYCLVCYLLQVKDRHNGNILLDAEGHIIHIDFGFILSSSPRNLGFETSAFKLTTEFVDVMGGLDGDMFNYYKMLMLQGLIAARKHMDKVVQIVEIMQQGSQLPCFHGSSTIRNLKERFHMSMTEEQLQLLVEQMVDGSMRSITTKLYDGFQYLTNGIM
Procedure: as §2

PI3Kα = PI3Kα (Homo sapiens, UniProt P42336); assay: PI3 kinase inhibition HTRF assay; type: biochemical; conditions: * no inhibition at the highest tested concentration 1 μM
Procedure: as §2

PI3Kβ = PI3Kβ (Homo sapiens, UniProt P42338); assay: PI3 kinase inhibition HTRF assay; type: biochemical; conditions: * no inhibition at the highest tested concentration 1 μM
PI3Kβ, sequence (P42338 whole entry, species assumed): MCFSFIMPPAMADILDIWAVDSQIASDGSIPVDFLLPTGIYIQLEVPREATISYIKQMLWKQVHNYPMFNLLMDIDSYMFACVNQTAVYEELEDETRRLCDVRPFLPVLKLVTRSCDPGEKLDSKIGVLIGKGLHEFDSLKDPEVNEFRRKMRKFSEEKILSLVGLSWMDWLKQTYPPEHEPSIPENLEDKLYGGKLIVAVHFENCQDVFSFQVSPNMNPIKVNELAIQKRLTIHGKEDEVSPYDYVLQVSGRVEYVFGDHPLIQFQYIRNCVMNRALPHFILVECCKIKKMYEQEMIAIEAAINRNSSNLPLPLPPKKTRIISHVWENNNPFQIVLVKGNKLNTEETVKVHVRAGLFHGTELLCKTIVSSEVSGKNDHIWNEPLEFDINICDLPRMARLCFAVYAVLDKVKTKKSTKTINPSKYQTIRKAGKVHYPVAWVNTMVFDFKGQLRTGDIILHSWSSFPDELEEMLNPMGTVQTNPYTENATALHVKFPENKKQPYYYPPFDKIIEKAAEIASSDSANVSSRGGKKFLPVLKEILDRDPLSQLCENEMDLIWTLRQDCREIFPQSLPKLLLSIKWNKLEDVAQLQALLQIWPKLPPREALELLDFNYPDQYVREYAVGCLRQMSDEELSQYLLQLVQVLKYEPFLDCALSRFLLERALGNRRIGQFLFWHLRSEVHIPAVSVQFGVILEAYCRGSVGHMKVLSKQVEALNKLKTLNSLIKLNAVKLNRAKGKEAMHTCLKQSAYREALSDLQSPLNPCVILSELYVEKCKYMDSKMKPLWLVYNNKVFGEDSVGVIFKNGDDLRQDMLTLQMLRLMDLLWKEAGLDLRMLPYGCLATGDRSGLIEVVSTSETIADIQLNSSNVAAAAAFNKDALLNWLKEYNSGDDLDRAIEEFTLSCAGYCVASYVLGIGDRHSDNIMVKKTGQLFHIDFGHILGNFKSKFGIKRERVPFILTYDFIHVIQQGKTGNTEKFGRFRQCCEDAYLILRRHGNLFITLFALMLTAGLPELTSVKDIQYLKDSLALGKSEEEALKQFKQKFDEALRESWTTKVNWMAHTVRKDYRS
PI3Kβ, sequence (P27986 whole entry partner, species assumed): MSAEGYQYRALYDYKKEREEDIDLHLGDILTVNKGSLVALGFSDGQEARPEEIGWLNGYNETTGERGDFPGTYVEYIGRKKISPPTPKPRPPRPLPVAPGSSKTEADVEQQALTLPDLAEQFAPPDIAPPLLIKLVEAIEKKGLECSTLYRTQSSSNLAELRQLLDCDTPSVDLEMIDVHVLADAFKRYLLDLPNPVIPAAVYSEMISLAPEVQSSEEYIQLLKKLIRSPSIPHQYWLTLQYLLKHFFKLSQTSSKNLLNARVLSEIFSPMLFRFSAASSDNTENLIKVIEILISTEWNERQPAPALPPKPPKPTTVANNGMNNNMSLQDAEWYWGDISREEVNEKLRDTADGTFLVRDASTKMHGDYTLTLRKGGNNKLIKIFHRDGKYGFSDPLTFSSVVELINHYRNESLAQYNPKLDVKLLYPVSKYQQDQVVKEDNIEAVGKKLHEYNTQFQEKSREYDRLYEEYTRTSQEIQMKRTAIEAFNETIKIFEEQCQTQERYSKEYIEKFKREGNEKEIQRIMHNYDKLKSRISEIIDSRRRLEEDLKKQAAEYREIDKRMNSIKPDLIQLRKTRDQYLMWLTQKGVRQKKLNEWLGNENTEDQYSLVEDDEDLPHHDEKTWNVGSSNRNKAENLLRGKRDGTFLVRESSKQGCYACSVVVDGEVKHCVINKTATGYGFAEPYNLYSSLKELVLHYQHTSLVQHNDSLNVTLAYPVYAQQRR
Procedure: as §2

EV71 = assay: Time of addition assay; type: cell-based, Enterovirus 71; conditions: Enterovirus A, 100 nM, EV71 at high titer
Procedure: The titer of the virus was determined by the standard method of tissue culture infective dose (TCID50) on cells. Briefly, cells were infected with 50 μl of virus suspension, and diluted 10-fold in media. The plates were incubated in 37° C. with 5% CO2 for 3-7 days and cells were inspected daily for CPE. After determining CPE, plates were stained with Gram's Crystal Violet solution and optical density was read at 540 nm. […] Substances at a final concentration of 0.1 nM-1 μM and the virus were added to the cells and incubated for 3-7 days depending on the virus and cell line used. As controls, uninfected cells and cells infected with virus (no substance) were included on each plate. The cells were stained with crystal violet after determining the CPE on infected controls and the optical density was read at 540 nm. The inhibition capacity was calculated as a % by comparison with non-infected and infected controls. Time of addition assay The assay was performed like the “in vitro assay in mammalian cell culture” described above with the exception that substance was added one hour pre inoculation (−1 h), at inoculation (0 h), and 2 hours (+2 h), 6 hours (+6 h) or 24 hours (+24 h) past inoculation. The virus EV71 was used at high titer for the test.

in vivo [4] = assay: in vivo; design: species or system Sprague Dawley rats; conditions: Sprague Dawley, rat, po
Procedure: Based on previous toxicity tests with analogs and pharmacokinetic data, repeated dose toxicity and toxicokinetic studies were conducted to generate information on the toxic characteristics of some representative compounds of the invention, viz. Example 8 and Example 12, respectively, when administered orally by gavage to Sprague Dawley rats for a period of 7 consecutive days. The study plan for the studies was by current ICH guidelines for 7 days toxicity studies and the No Observed Adverse Effect Level (NOAEL) of Example 8 and Example 12 was determined as 60 mg/kg body weight/day and 50 mg/kg bodyweight/day respectively when administered once daily orally to Sprague Dawley rats for 7 consecutive days under the tested dose levels and experimental conditions employed.

SMILES | IC50 (Enterovirus 6) [nM] | IC50 (Enterovirus 30) [nM] | IC50 (Enterovirus 68) [nM] | IC50 (Enterovirus 71) [nM] | IC50 (coxsackie B1 virus) [nM] | IC50 (coxsackie B2 virus) [nM] | IC50 (coxsackie B3 virus) [nM] | IC50 (coxsackie B5 virus) [nM] | IC50 (polio virus Sabin 1) [nM] | AUC(0-inf) (in vivo [1]) [ng·h/mL] | AUC(0-t) (in vivo [1]) [ng·h/mL] | AUCextrap (in vivo [1]) [%] | Cmax (in vivo [1]) [ng/mL] | MRT last (in vivo [1]) [h] | Tmax (in vivo [1]) [h] | half-life (in vivo [1]) [h] | Remaining after 1 h, HLM [2] [%] | half-life at 5 μM [2] [h] | Remaining after 1 h, RLM [3] [%] | fraction unbound at 4 h, 5 μM (in vitro; human) | further results
Cc1cc(NCc2ccncc2)c2nc(C)c(-c3ccc4c(c3)c(C)nn4C)n2n1 [Example 1, 3-(1,3-dimethyl-1H-indazol-5-yl)-2,6-dimethyl-N-(pyridin-4-ylmethyl)imidazo[1,2-b]pyridazin-8-amine] | < 10 | < 0.1 | < 100 | < 10 | < 10 | < 10 | < 1 | < 0.1 | < 1 | 31800 ± 8000 | 22200 ± 2100 | 27.8 ± 14.8 | 3900 ± 400 | 3.4 ± 0.2 | 1.7 ± 0.6 | 4.3 ± 2 | 90 | > 2 | 88 | 0.016 | fraction unbound at 4 h, 5 μM (in vitro; rat): 0.03
Cc1ccc(CNc2cc(C)nn3c(-c4ccc5c(c4)c(C)nn5C)c(C)nc23)cn1 [Example 2, 3-(1,3-dimethyl-1H-indazol-5-yl)-2,6-dimethyl-N-((6-methylpyridin-3-yl)methyl)imidazo[1,2-b]pyridazin-8-amine] | < 100 | < 100 | < 1000 | < 100 | < 100 | < 100 | < 10 | < 100 | < 100 | 64100 ± 7000 | 58600 ± 9900 | 8.8 ± 7.1 | 4800 ± 800 | 6.9 ± 0.8 | 1.7 ± 0.6 | 6.6 ± 2.4 |  |  |  |  | IC50 (coxsackie B4 virus): < 10 nM; IC50 (PI4KIIIα): 200 nM; IC50 (PI4KIIIβ): 1.5 nM; IC50 (PI3Kα): > 1000 nM; IC50 (PI3Kβ): 1700 nM
Cc1cc(NCc2ccc(S(C)(=O)=O)cc2)c2nc(C)c(-c3ccc4c(c3)c(C)nn4C)n2n1 [Example 7, 3-(1,3-dimethyl-1H-indazol-5-yl)-2,6-dimethyl-N-(4-(methyl-sulfonyl)benzyl)imidazo[1,2-b]pyridazin-8-amine] |  | < 100 | < 1 | < 1 | < 10 | < 10 | < 1 | < 10 | < 10 |  |  |  |  |  |  |  | 75 | > 2 | 94 | 0.005 | IC50 (coxsackie B4 virus): < 100 nM; inhibition at 0.1 µM (EV71; 0 h, substance added at inoculation, read-out: Inhibition of cytopathogenic effect, 0 h): 85%; inhibition at 0.1 µM (EV71; 1 h, substance added one hour pre inoculation, read-out: Inhibition of cytopathogenic effect, −1 h): 95%; inhibition at 0.1 µM (EV71; substance added 2 hours past inoculation, read-out: Inhibition of cytopathogenic effect, +2 h): 100%; inhibition at 0.1 µM (EV71; substance added 6 hours past inoculation, read-out: Inhibition of cytopathogenic effect, +6 h): 91%; inhibition at 0.1 µM (EV71; substance added 24 hours past inoculation, read-out: Inhibition of cytopathogenic effect, +24 h): 2%; fraction unbound at 4 h, 5 μM (in vitro; rat): 0.006
Cc1cc(NCc2ccc(S(C)(=O)=O)cc2)n2nc(C)c(-c3ccc4c(c3)c(C)nn4C)c2n1 [Example 12, 3-(1,3-dimethyl-1H-indazol-5-yl)-2,5-dimethyl-N-(4-(methyl-sulfonyl)benzyl)pyrazolo[1,5-a]pyrimidin-7-amine] | < 10 | < 1 | < 100 | < 10 | < 10 | < 10 | < 1 | < 1 | < 10 | 73300 ± 46900 | 30000 ± 8200 | 49.4 ± 24.5 | 1900 ± 100 | 10.3 ± 1.2 | 5.3 ± 2.3 | 27.6 ± 16.8 | 84 | > 2 | 71 | 0.01 | IC50 (coxsackie B4 virus): < 1 nM; IC50 (PI4KIIIα): 800 nM; IC50 (PI4KIIIβ): 0.8 nM; IC50 (PI3Kα): > 1000 nM; IC50 (PI3Kβ): > 1000 nM; fraction unbound at 4 h, 5 μM (in vitro; rat): 0.015; NOAEL at 7 days (in vivo [4]): 50 mg/kg/day
